From patent publication US11865176B2, “Compositions and methods of modulating anti-tumor immunity” (Dana-Farber Cancer Institute, Inc., priority 2016, dated 2024)
Where two headings read alike, the source gives them in different places.

Tested on: PD-1-overexpressing Jurkat cells
Assay: Small molecule screen: IL2 secretion (AlphaLISA) from stimulated PD-1-overexpressing Jurkat cells
Assay type: cell-based, human
Procedure: PD-1-overexpressing Jurkat cells were plated at a concentration of 100,000 cells/well in a total volume of 80 μl. […] Dynabeads conjugated to α-CD3, α-CD28, and α-PD-1 antibodies were added in 20 for a final assay volume of 100 with a final compound concentration of 3.3 μM and an 8:1 bead:cell ratio. Beads were conjugated to α-CD3/α-CD28/control IgG and added to wells containing DMSO-treated cells as a positive control, while beads conjugated to α-CD3/α-CD28/α-PD1 were added to wells containing DMSO-treated cells as a negative control. Supernatants from each well were analyzed for IL2 levels by AlphaLISA (Perkin Elmers) according to the manufacturer's protocol. Average and standard deviation values were calculated from the PD-1 controls (DMSO-treated cells stimulated with α-CD3/α-CD28/α-PD-1 beads); hits were defined as compounds scoring at least 3 standard deviations from the mean of the controls.
In addition to known negative regulators of IL-2 production (e.g. glycogen synthase kinase-3α/β (GSK3α/β) (24,25)), this screen identified cyclin-dependent kinases 4 and 6 inhibitors (CDK4/6i) as top hits (Table 1).

[1] = IL2 level, replicate 1, 3.3 μM compound, α-CD3/α-CD28/α-PD-1 beads
[2] = IL2 level, replicate 2, 3.3 μM compound, α-CD3/α-CD28/α-PD-1 beads
[3] = average of replicate Z scores, 3.3 μM compound

Row | Compound | Zscore_1 [1] | Zscore_2 [2] | Zscore_AVG [3] | Zscore_1 | Zscore_2 | Zscore_AVG
1 | O=C(Nc1nc2ccccc2n1CCN1CCOCC1)c1cccc([N+](=O)[O-])c1 [IRAK-1/4 Inhibitor] | −0.5038 | −1.963 | −1.233 | – | – | –
2 | N#Cc1c(NC(=O)c2cccc3ccccc23)sc2c1CCCC2 [JNK Inhibitor IX] | 0.5842 | −0.05285 | 0.2657 | – | – | –
3 | COc1ccc2c(c1)/C(=C/c1cnc[nH]1)C(=O)N2 [SU9516] | 8.231 | 12.12 | 10.18 | – | – | –
4 | CC[C@@H](CO)Nc1nc(NCc2ccc(-c3ccccn3)cc2)c2ncn(C(C)C)c2n1 (single isomer, unassigned) [CR8, (S)-Isomer] | −10.2 | −10.59 | −10.39 | – | – | –
5 | Cc1ccc([N+](=O)[O-])cc1S(=O)(=O)N(C)/N=C/c1cnc2ccc(Br)cn12.Cl [PI 3-Kα Inhibitor VIII] | −7.658 | −10.33 | −8.993 | – | – | –
6 | COc1ccc(CNC(=O)Nc2ncc([N+](=O)[O-])s2)cc1 [GSK-3b Inhibitor VIII] | 1.017 | 0.5916 | 0.8042 | – | – | –
7 | CCCCCCCCCCCCCCCCn1cc[n+](Cc2ccccc2)c1C.[I-] [eEF-2 Kinase Inhibitor, NH125] | −4.759 | −7.332 | −6.046 | – | – | –
8 | Cn1sc(=O)n(Cc2ccccc2)c1=O [GSK-3b Inhibitor I] | −1.327 | −2.222 | −1.774 | – | – | –
9 | Cc1cc(C)c(/C=C2\C(=O)Nc3ccccc32)[nH]1 [VEGF Receptor 2 Kinase Inhibitor III] | −0.2089 | −2.04 | −1.124 | – | – | –
10 | Nc1[nH]nc2nnc(-c3c(-c4ccccc4)nn4ccccc34)cc12 [ERK Inhibitor II, FR180204] | −2.073 | −4.806 | −3.439 | – | – | –
11 | CN1C(=O)C(c2c[nH]c3ccccc23)=C(c2c[nH]c3ccccc23)C1=O [Bisindolylmaleimide V] | −0.6214 | 1.109 | 0.2438 | – | – | –
12 | CN([C@@H](Cc1ccc(OS(=O)(=O)c2cccc3cnccc23)cc1)C(=O)N1CCN(c2ccccc2)CC1)S(=O)(=O)c1cccc2cnccc12 [KN-62] | −0.2488 | −0.8434 | −0.5461 | – | – | –
13 | CC(C)(C)n1nc(Cc2cccc3ccccc23)c2c(N)ncnc21 [PP1 Analog II, 1NM-PP1] | −0.9751 | 0.08497 | −0.4451 | – | – | –
14 | Scytonemin, Lyngbya sp. | 0.1217 | −0.3399 | −0.1091 | – | – | –
15 | O=C1Cc2c([nH]c3ccc(Br)cc23)-c2ncccc2N1 [1-Azakenpaullone] | 0.418 | 1.913 | 1.165 | – | – | –
16 | O=C1Nc2ccc(Br)cc2/C1=C/c1cc2c([nH]1)CCCC2 [VEGF Receptor 2 Kinase Inhibitor II] | 0.1217 | −0.1806 | −0.02944 | – | – | –
17 | Nc1nc(Nc2ccc(S(N)(=O)=O)cc2)nn1C(=O)c1c(F)cccc1F [Aurora Kinase/Cdk Inhibitor] | −1.131 | −3.054 | −2.093 | – | – | –
18 | CCCCn1c2ccc(O)cc2c2c3c(c(-c4ccccc4Cl)cc21)C(=O)NC3=O [Wee1 Inhibitor II] | 0.7541 | −1.786 | −0.5162 | – | – | –
19 | N#C/C(=C/c1ccc(O)c(O)c1)C(=O)NCc1ccccc1 [AG 490] | −2.645 | 0.2008 | −1.222 | – | – | –

Row | Compound | Zscore_1 [1] | Zscore_2 [2] | Zscore_AVG [3] | Zscore_1 | Zscore_2 | Zscore_AVG
20 | O=C1Nc2cc(Br)ccc2/C1=C1/Nc2ccccc2/C1=N\O [GSK-3 Inhibitor IX] | 25.07 | 34.88 | 29.98 | – | – | –
21 | Nc1n[nH]c(N)c1N=Nc1ccc(O)cc1 [Cdk9 Inhibitor II] | −0.7951 | 0.1385 | −0.3283 | – | – | –
22 | Brc1c(Br)c(Br)c2n[nH]nc2c1Br [Casein Kinase II Inhibitor I] | 0.6337 | 0.5348 | 0.5842 | – | – | –
23 | Nc1ncnc2c1cnn2-c1ccccc1 [PP3] | 0.2416 | 0.9081 | 0.5749 | – | – | –
24 | O=C(Nc1ccncc1)Nc1c(Cl)cc(Cl)cc1Cl [Rho Kinase Inhibitor II] | −1.746 | −1.88 | −1.813 | – | – | –
25 | Nc1nc(Nc2ccc(S(N)(=O)=O)cc2)nn1C(=S)Nc1c(F)cccc1F [Cdk1/2 Inhibitor III] | −10.55 | −11.64 | −11.1 | – | – | –
26 | Cl.Cl.O=S(=O)(c1cccc2cnccc12)N1CCCNCC1 [HA 1077, Dihydrochloride Fasudil] | −1.883 | −3.234 | −2.559 | – | – | –
27 | c1nc2nc(Nc3ccc(N4CCOCC4)cc3)nc(NC3CCCCC3)c2[nH]1 [Reversine] | −3.512 | −5.332 | −4.422 | – | – | –
28 | c1cc(-c2cnn3cc(-c4ccc(OCCN5CCCCC5)cc4)cnc23)ccn1 [AMPK Inhibitor, Compound C] | −2.877 | 1.296 | −0.7902 | – | – | –
29 | CN(C)CCCn1cc(C2=C(c3c[nH]c4ccccc34)C(=O)NC2=O)c2ccccc21 [Bisindolylmaleimide I] | −9.431 | −8.32 | −8.875 | – | – | –
30 | CS(=O)(=O)c1ccc(-c2nc(-c3ccc(F)cc3)c(-c3ccncc3)[nH]2)cc1 [SB 203580, Sulfone] | – | – | – | 2.85 | −0.6448 | 1.103
31 | O=c1cc(-c2cccc3c2Sc2ccccc2S3)oc(N2CCOCC2)c1 [ATM Kinase Inhibitor] | 1.379 | 4.382 | 2.881 | – | – | –
32 | O=C1NCCc2[nH]c(-c3ccnc(-c4cnc5ccccc5c4)c3)cc21 [MK-2 Inhibitor III] | −4.419 | −7.061 | −5.74 | – | – | –
33 | Nc1nccc(-c2c(-c3ccc(F)cc3)ncn2C2CCNCC2)n1 [SB 220025] | 14.69 | 27.59 | 21.14 | – | – | –
34 | COc1cc(OC)c(C=C2C(O)=Nc3ccccc32)c(OC)c1 [IC261] | −0.7866 | −1.136 | −0.9616 | – | – | –
35 | Cn1cc(C2=C(c3cn(CCCSC(=N)N)c4ccccc34)C(=O)NC2=O)c2ccccc21 [Ro-31-8220] | −5.987 | −6.268 | −6.128 | – | – | –
36 | CCC(=O)Nc1ccc2ncnc(Nc3cccc(Br)c3)c2c1 [PD 174265] | −0.1183 | 0.5895 | 0.2356 | – | – | –
37 | N#Cc1c(C2CCNCC2)cc(-c2c(O)cccc2OCC2CC2)nc1N [IKK-2 Inhibitor VIII] | −0.6795 | −0.365 | −0.5222 | – | – | –
38 | O=C1Nc2ccccc2/C1=C1/Nc2ccccc2/C1=N\OCC(O)CO (stereo not drawn) [Indirubin Derivative E804] | 20.78 | 24.43 | 22.6 | – | – | –
